According to publication PMC11222147, “Host defence peptide plectasin targets bacterial cell wall precursor lipid II by a calcium-sensitive supramolecular mechanism” (Nature Microbiology, 2024):

How the values were obtained:
S. simulans [1] = experiment: DPH anisotropy membrane fluidity measurements; format: cell-based, Staphylococcus simulans; details: intact S. simulans cells, 1 µM plectasin, 37 °C, biological triplicates
Experimental: Preparation of S. simulans stock solutions was done as described above for bacterial permeabilization in PBS. About 1 ml of a cell suspension of OD600 = 0.1 in PBS was treated with 1 µM plectasin and incubated at 37 °C. All assays were performed on a Cary Eclipse (FL0904M005) fluorometer fitted with a manual polarizer accessory (Varian). Measurements were conducted at 37 °C under constant stirring in a 4 × 10 mm quartz cuvette. About 10 µM DPH was added from a 1 mM stock in dimethyl sulfoxide (bringing the final dimethyl sulfoxide concentration to 1 vol%) and incubated for 5 min. Fluorescence was excited with 380 nm light (10 nm slit) and recorded between 430 and 520 nm (10 nm slit) with 0.5 s averaging time and data interval of 1.66 nm per point. Fluorescence anisotropy was calculated using the maximum intensity of each spectrum according to the following equation (where IVV and IVH represent the fluorescence intensity using parallel and orthogonal excitation and emission polarization filters, respectively): r=IVV−IVH/IVV+2IVH

S. simulans [2] = experiment: Bacterial permeabilization assay (DiSC2(5), SYTOX green); format: cell-based, Staphylococcus simulans; details: DiSC2(5) and SYTOX green, concentrations higher than the MIC, 20 °C
Experimental: Overnight cultures (37 °C, TSB) of S. simulans were diluted to OD600 = 0.1 and grown until mid-log phase (OD600 = 0.5–0.8) and collected by centrifugation (2,000 × g, room temperature, 5 min). Cell pellets were washed with buffer (10 mM Tris, 50 mM NaCl and 0.5% w/v glucose at pH = 7.2), resuspended to OD600 = 10 and stored at 4 °C until use. All assays were performed on a Cary Eclipse (FL0904M005) fluorometer. Measurements were done using bacterial suspensions at OD600 = 0.05 in the aforementioned buffer under constant stirring at 20 °C in a 4 × 10 mm quartz cuvette. About 0.2 µM 3,3′-diethylthiadicarbocyanine iodide or 0.25 µM SYTOX green was added and equilibrated for 2 min before addition of an antibiotic. For 3,3′-diethylthiadicarbocyanine iodide, we used excitation and emission wavelengths of 650 nm and 670 nm, respectively, while for SYTOX green, we used 504 nm and 523 nm. About 5 nm slits were used, and fluorescence signal was averaged every 0.3 s.

CC[C@H](C)[C@@H]1NC(=O)[C@H](CO)NC(=O)[C@H](CCCCN)NC(=O)[C@@H]2CSSC[C@@H](C(=O)N[C@@H](Cc3ccc(O)cc3)C(=O)O)NC(=O)[C@H](CCCCN)NC(=O)[C@@H]3CSSC[C@H](NC(=O)[C@H](CCC(N)=O)NC(=O)[C@H](CCSC)NC(=O)[C@H](CC(=O)O)NC(=O)[C@H](CC(=O)O)NC(=O)[C@H](CCC(=O)O)NC(=O)[C@H](CC(=O)O)NC(=O)[C@H](Cc4c[nH]c5ccccc45)NC(=O)[C@@H]4CCCN4C(=O)CNC(=O)[C@H](CC(N)=O)NC(=O)[C@@H](NC(=O)CNC(=O)[C@H](Cc4ccccc4)NC(=O)CN)CSSC[C@H](NC(=O)[C@H](Cc4ccc(O)cc4)NC(=O)CNC(=O)CNC(=O)[C@H](CCCCN)NC(=O)[C@H](Cc4ccc(O)cc4)NC(=O)CNC(=O)[C@H](CCCCN)NC1=O)C(=O)N[C@@H](C)C(=O)N[C@@H](CCCCN)C(=O)NCC(=O)NCC(=O)N[C@@H](Cc1ccccc1)C(=O)N[C@@H](C(C)C)C(=O)N3)C(=O)N[C@@H](Cc1c[nH]cn1)C(=O)N[C@@H](CC(N)=O)C(=O)N[C@@H](Cc1c[nH]cn1)C(=O)N2 [Plectasin wt]
DPH fluorescence anisotropy (membrane fluidity) (S. simulans [1]): decrease in the fluorescence anisotropy
leakage in S. simulans membranes (in words) (S. simulans [2]): does not cause leakage
